Measurements: PubChem BioAssay AID248 (DTP/NCI, 2004)
Values joined by “and” are separate entries in the source; they are usually repeats but may differ in a detail not shown here. Equal entries are not always repeated. Inconclusive results and toxic doses are left out. Rule as the data show it: active = T/C of 150% or more; inactive = T/C below 125%.

Tested on: L1210 leukemia ip in BDF1 mice, survival T/C
Assay: NCI In Vivo Anticancer Drug Screen. Data for tumor model L1210 Leukemia (intraperitoneal) in B6D2F1 (BDF1) mice
Details: endpoint: mean survival time, higher = longer survival
Method in brief: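 Transplanted-tumor mice were given test agent; controls received vehicle only. Survival readings from the two groups were divided (treated over control).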

[1] = dose: 100.0 mg/kg/injection, schedule: Q01DX009 (ip), vehicle: Klucel (hydroxypropylcellulose) (HPC)
[2] = dose: 100.0 mg/kg/injection, schedule: Q04DX003 (ip), vehicle: Klucel (hydroxypropylcellulose) (HPC)
[3] = dose: 200.0 mg/kg/injection, schedule: Q01DX009 (ip), vehicle: Klucel (hydroxypropylcellulose) (HPC)
[4] = dose: 200.0 mg/kg/injection, schedule: Q04DX003 (ip), vehicle: Klucel (hydroxypropylcellulose) (HPC)
[5] = dose: 400.0 mg/kg/injection, schedule: Q04DX003 (ip), vehicle: Klucel (hydroxypropylcellulose) (HPC)
[6] = dose: 100.0 mg/kg/injection, schedule: Q04DX003 (ip), vehicle: saline
[7] = dose: 200.0 mg/kg/injection, schedule: Q04DX003 (ip), vehicle: saline
[8] = dose: 400.0 mg/kg/injection, schedule: Q04DX003 (ip), vehicle: saline
[9] = dose: 75.0 mg/kg/injection, schedule: Q01DX001 (ip), vehicle: saline
[10] = dose: 100.0 mg/kg/injection, schedule: Q04DX002 (ip), vehicle: saline with Tween-80

Measured: T/C

Nc1nc(N)nc(-c2ccc(-n3nnc4ccccc4c3=O)cc2)n1
inactive: [1] 90 % of control | [2] 96 % of control | [3] 93 % of control | [4] 96 % of control | dose: 400.0 mg/kg/injection, schedule: Q01DX009 (ip), vehicle: Klucel (hydroxypropylcellulose) (HPC) 90 % of control | [5] 91 % of control

CSCCNC(=O)NS(=O)(=O)c1ccc(Cl)cc1
inactive: [6] 96 % of control | [7] 97 % of control | [8] 92 % of control

CON(C)S(=O)(=O)c1ccc(Cl)cc1
inactive: [2] 100 % of control | [4] 103 % of control | [5] 105 % of control

CN(/N=C/c1ccccc1)C(=N)N
inactive: dose: 5.0 mg/kg/injection, schedule: Q01DX009 (ip), vehicle: saline 106 % of control | dose: 10.0 mg/kg/injection, schedule: Q01DX001 (ip), vehicle: saline 98 % of control | dose: 10.0 mg/kg/injection, schedule: Q01DX009 (ip), vehicle: saline 93 % of control | dose: 10.0 mg/kg/injection, schedule: Q04DX003 (ip), vehicle: saline 101 % of control | dose: 20.0 mg/kg/injection, schedule: Q01DX001 (ip), vehicle: saline 101 % of control | dose: 20.0 mg/kg/injection, schedule: Q01DX009 (ip), vehicle: saline 104 % of control | dose: 20.0 mg/kg/injection, schedule: Q04DX003 (ip), vehicle: saline 97 % of control | dose: 40.0 mg/kg/injection, schedule: Q01DX001 (ip), vehicle: saline 93 % of control | dose: 40.0 mg/kg/injection, schedule: Q04DX003 (ip), vehicle: saline 103 % of control | dose: 62.5 mg/kg/injection, schedule: Q04DX003 (ip), vehicle: saline 117 % of control | [9] 100 % of control

Cc1csc2ncnc(Cl)c12
inactive: dose: 25.0 mg/kg/injection, schedule: Q04DX002 (ip), vehicle: saline with Tween-80 98 % of control | dose: 50.0 mg/kg/injection, schedule: Q04DX002 (ip), vehicle: saline with Tween-80 91 % of control | [10] 94 % of control

N=c1ncn(Cc2ccccc2)c2nc[nH]c12
inactive: [1] 91 % of control | [3] 101 % of control

O=CN/N=C\c1cccc2ccccc12
inactive: [9] 103 % of control | dose: 150.0 mg/kg/injection, schedule: Q01DX001 (ip), vehicle: saline 98 % of control | dose: 300.0 mg/kg/injection, schedule: Q01DX001 (ip), vehicle: saline 97 % of control

Cc1ccn(-c2cc(NS(=O)(=O)c3ccccc3)c3ccccc3c2NS(=O)(=O)c2ccccc2)c(=O)c1
inactive: dose: 50.0 mg/kg/injection, schedule: Q01DX001 (ip), vehicle: Klucel (hydroxypropylcellulose) (HPC) 107 % of control | dose: 100.0 mg/kg/injection, schedule: Q01DX001 (ip), vehicle: Klucel (hydroxypropylcellulose) (HPC) 94 % of control | dose: 200.0 mg/kg/injection, schedule: Q01DX001 (ip), vehicle: Klucel (hydroxypropylcellulose) (HPC) 97 % of control

O=C(NCc1cnccn1)Nc1ccccc1
inactive: dose: 25.0 mg/kg/injection, schedule: Q01DX009 (ip), vehicle: saline 101 % of control | dose: 50.0 mg/kg/injection, schedule: Q01DX009 (ip), vehicle: saline 87 % of control | dose: 100.0 mg/kg/injection, schedule: Q01DX009 (ip), vehicle: saline 108 % of control | dose: 200.0 mg/kg/injection, schedule: Q01DX009 (ip), vehicle: saline 102 % of control | dose: 400.0 mg/kg/injection, schedule: Q01DX009 (ip), vehicle: saline 103 % of control

Cc1ccc(S(=O)(=O)NNc2c3ccccc3nc3ccc(Cl)cc23)cc1
inactive: [10] 101 % of control | dose: 200.0 mg/kg/injection, schedule: Q04DX002 (ip), vehicle: saline with Tween-80 97 % of control | dose: 400.0 mg/kg/injection, schedule: Q04DX002 (ip), vehicle: saline with Tween-80 97 % of control

CCOc1nc(=O)n(C2CCOC2=O)cc1F (stereo not given)
inactive: dose: 75.0 mg/kg/injection, schedule: Q01DX009 (ip), vehicle: other 103 % of control | [6] 92 % of control | dose: 150.0 mg/kg/injection, schedule: Q01DX009 (ip), vehicle: other 103 % of control | [7] 106 % of control | dose: 300.0 mg/kg/injection, schedule: Q01DX009 (ip), vehicle: other 100 % of control | [8] 95 % of control

O=[N+]([O-])CC1(O)CCCCC1
inactive: dose: 25.0 mg/kg/injection, schedule: Q01DX009 (ip), vehicle: Klucel (hydroxypropylcellulose) (HPC) 97 % of control | dose: 50.0 mg/kg/injection, schedule: Q01DX009 (ip), vehicle: Klucel (hydroxypropylcellulose) (HPC) 98 % of control

O=C(N/N=C\c1ccc(N(CCCl)CCCl)cc1)c1cccnc1
inactive: dose: 12.5 mg/kg/injection, schedule: Q01DX Z (ip), vehicle: carboxymethylcellulose (CMC) 96 % of control | dose: 25.0 mg/kg/injection, schedule: Q01DX Z (ip), vehicle: carboxymethylcellulose (CMC) 93 % of control and 94 % of control | dose: 50.0 mg/kg/injection, schedule: Q01DX Z (ip), vehicle: carboxymethylcellulose (CMC) 94 % of control and 100 % of control | dose: 100.0 mg/kg/injection, schedule: Q01DX Z (ip), vehicle: carboxymethylcellulose (CMC) 97 % of control and 104 % of control | dose: 200.0 mg/kg/injection, schedule: Q01DX Z (ip), vehicle: carboxymethylcellulose (CMC) 107 % of control and 111 % of control

CC(C)CCC[C@@H](C)[C@H]1CC[C@H]2[C@@H]3CCC(=O)[C@](C)(CCC(=O)O)[C@H]3CC[C@]12C
inactive: dose: 50.0 mg/kg/injection, schedule: Q04DX003 (ip), vehicle: alcohol 102 % of control | dose: 100.0 mg/kg/injection, schedule: Q04DX003 (ip), vehicle: alcohol 98 % of control | dose: 200.0 mg/kg/injection, schedule: Q04DX003 (ip), vehicle: alcohol 102 % of control

Cc1cc(/C=C/C2=[N+](C)c3ccc(F)cc3C2(C)C)c(O)c2ncccc12
inactive: dose: 100.0 mg/kg/injection, schedule: Q01DX001 (ip), vehicle: carboxymethylcellulose (CMC) 98 % of control | dose: 200.0 mg/kg/injection, schedule: Q01DX001 (ip), vehicle: carboxymethylcellulose (CMC) 90 % of control | dose: 400.0 mg/kg/injection, schedule: Q01DX001 (ip), vehicle: carboxymethylcellulose (CMC) 93 % of control

COc1cc2c(cc1OC)C(=O)CC2
inactive: dose: 50.0 mg/kg/injection, schedule: Q01DX001 (ip), vehicle: other 91 % of control | dose: 100.0 mg/kg/injection, schedule: Q01DX001 (ip), vehicle: other 98 % of control | dose: 200.0 mg/kg/injection, schedule: Q01DX001 (ip), vehicle: other 98 % of control | dose: 400.0 mg/kg/injection, schedule: Q01DX001 (ip), vehicle: other 96 % of control

COCCN1CCC(CN2c3ccccc3Sc3ccccc32)C1 (stereo not given)
inactive: [6] 111 % of control

COc1ccc(OC)c(/C=C/C(=O)c2ccc(Cl)cc2)c1
inactive: [2] 94 % of control | [4] 94 % of control | [5] 97 % of control

Cc1cc(C(=O)O)c(C)cc1SSc1cc(C)c(C(=O)O)cc1C
inactive: dose: 75.0 mg/kg/injection, schedule: Q01DX001 (ip), vehicle: carboxymethylcellulose (CMC) 94 % of control | dose: 150.0 mg/kg/injection, schedule: Q01DX001 (ip), vehicle: carboxymethylcellulose (CMC) 94 % of control | dose: 300.0 mg/kg/injection, schedule: Q01DX001 (ip), vehicle: carboxymethylcellulose (CMC) 88 % of control

Cc1cc(C)c(NC(=O)Cc2ccccc2)cc1C
inactive: dose: 100.0 mg/kg/injection, schedule: Q04DX002 (ip), vehicle: Klucel (hydroxypropylcellulose) (HPC) 96 % of control | dose: 200.0 mg/kg/injection, schedule: Q04DX002 (ip), vehicle: Klucel (hydroxypropylcellulose) (HPC) 96 % of control | dose: 400.0 mg/kg/injection, schedule: Q04DX002 (ip), vehicle: Klucel (hydroxypropylcellulose) (HPC) 89 % of control
